Results published in patent US20030113385A1, “Use of combinations of active agents consisting of antimicrobially active substances and plant extracts containing terpene in veterinary medicine” (Boehringer Ingelheim Vetmedica GmbH, priority 1998, published 2003).

Columns and labels:
Staphylococcus aureus [1] = test: MIC on growth of Staphylococcus aureus in nutrient solution (ISB), microtitre plates, turbidity; type: cell-based; conditions: for MIC: Staphylococcus aureus, read-out: average MIC (+standard deviation)
Description: (§1) The sensitivity tests and the experiments carried out with combinations of active agents—using the so-called Checkerboard design—in broth (nutrient medium) and milk, were carried out using microtitre plates. Three capsule-positive and three capsule-negative strains of Staphylococcus aureus were used. The so-called MIC value was determined by fluorometric methods (in milk).
(§2) The concentration of the standard solution of the tea tree oil used was 4% vol/vol.
(§3) The highest concentration used in the tests was 1/10th of the original standard solution, i.e. 0.4 vol-%.
1 Effect of tea tree oil (Ttoil) on the growth of Staphylococcus aureus in nutrient solution (ISB).
The results are given as the average minimum inhibitory concentration from four repeats
(§4) 3 Susceptibility of Staphylococcus aureus to selected antibacterial agents in nutrient medium (ISB) and milk. […] Each strain was tested […].

Staphylococcus aureus [2] = test: MIC on growth of Staphylococcus aureus in milk, microtitre plates, fluorometric; type: cell-based; conditions: for MIC: Staphylococcus aureus, read-out: average MIC (+standard deviation)
Description: as §1, §2, §3
2 Effect of tea tree oil on the growth of Staphylococcus aureus in normal milk. Each strain was tested four times.
as §4

[3] = three capsule negative Staph. aureus strains
[4] = three capsule positive Staph. aureus strains

| Compound | MIC (Staphylococcus aureus [1]; [3]) | MIC (Staphylococcus aureus [1]; [4]) | MIC (Staphylococcus aureus [2]; [3]) | MIC (Staphylococcus aureus [2]; [4]) | MIC range (in brackets) (Staphylococcus aureus [1]; [3]) | MIC range (in brackets) (Staphylococcus aureus [1]; [4]) | MIC range (in brackets) (Staphylococcus aureus [2]; [3]) | average MIC (+standard deviation) (Staphylococcus aureus [1]; [3]) | average MIC (+standard deviation) (Staphylococcus aureus [1]; [4]) | average MIC (+standard deviation) (Staphylococcus aureus [2]; [3]) | MIC range (in brackets) (Staphylococcus aureus [2]; [4]) | average MIC (+standard deviation) (Staphylococcus aureus [2]; [4]) |
| --- | --- | --- | --- | --- | --- | --- | --- | --- | --- | --- | --- | --- |
| CC1(C)S[C@@H]2[C@H](NC(=O)[C@H](N)c3ccccc3)C(=O)N2[C@H]1C(=O)O [Ampicillin, ampicillin] | 0.198 ± 0.018 µg/mL | 0.188 ± 0.019 µg/mL | 0.104 ± 0.009 µg/mL | 0.12 ± 0.005 µg/mL | – | – | – | – | – | – | – | – |
| CC(=O)OCC1=C(C(=O)O)N2C(=O)[C@@H](NC(=O)Cc3cccs3)[C@H]2SC1 [Cephalothin, cephalothin] | 0.188 ± 0.019 µg/mL | 0.188 ± 0.019 µg/mL | 0.167 ± 0.018 µg/mL | 0.25 µg/mL | (0.125-0.25) μg/ml | (0.125-0.25) μg/ml | (0.125-0.25) μg/ml | – | – | – | – | – |
| CC1(C)S[C@@H]2[C@H](NC(=O)Cc3ccccc3)C(=O)N2[C@H]1C(=O)O [Penicillin G, penicillin G] | – | – | – | – | (0.025-0.05) μg/ml | (0.025-0.05) μg/ml | (0.013-0.05) μg/ml | 0.033 ± 0.004 µg/mL | 0.035 ± 0.004 µg/mL | 0.031 ± 0.005 µg/mL | (0.013-0.025) μg/ml | 0.022 ± 0.002 µg/mL |
| spiramycin | – | – | – | – | (10-20) μg/ml | (10-20) μg/ml | (6.25-50) μg/ml | 15 ± 1.5 µg/mL | 15.83 ± 1.49 µg/mL | 25.52 ± 4.82 µg/mL | (12.5-50) μg/ml | 25 ± 3.77 µg/mL |
